According to patent US20160297830A1, “NOVEL COMPOUNDS USEFUL FOR THE TREATMENT OF BACTERIAL INFECTIOUS DISEASES” (GALAPAGOS NV, priority 2013, published 2016):
pIC50: −log10 of the molar value. Values after ≈ are worked out from the molar mass of the structure shown. Where two headings read alike, the source gives them in different places.

How the values were obtained:
[1] = system: S. aureus Sa1 ATCC 13709; test: microbe, parasite or virus in culture; assay type: cell-based; conditions: Staphylococcus aureus
[2] = system: S. aureus Sa26 ATCC 25923; test: Antibacterial activity assay (MIC), S. aureus Sa26; assay type: cell-based; conditions: Staphylococcus aureus
[3] = system: S. aureus Sa4 NCTC 6571; test: Antibacterial activity assay (MIC), S. aureus Sa4; assay type: cell-based; conditions: Staphylococcus aureus
[4] = system: S. aureus Sa2 clinical strain NCIMB 41953, MRSA; test: microbe, parasite or virus in culture; assay type: cell-based; conditions: Staphylococcus aureus, read-out: MIC Sa2
[5] = system: H. influenza Hi3 ATCC 31517; test: organism not typed; assay type: cell-based; conditions: read-out: MIC Hi3
[6] = system: H. influenza Hi10 clinical strain; test: organism not typed; assay type: cell-based; conditions: read-out: MIC Hi10
[7] = system: H. influenza Hi47 clinical strain, Ampicillin Resistant; test: organism not typed; assay type: cell-based; conditions: read-out: MIC Hi47
[8] = system: H. influenza Hi106 ATCC 51907; test: organism not typed; assay type: cell-based; conditions: read-out: MIC Hi106
[9] = system: E. coli Ec1 ATCC 25922; test: Antibacterial activity assay (MIC), E. coli Ec1; assay type: cell-based; conditions: Escherichia coli
[10] = system: E. coli Ec50 efflux pump KO; test: microbe, parasite or virus in culture; assay type: cell-based; conditions: Escherichia coli, read-out: MIC Ec50 efflux pump KO
[11] = system: E. coli Ec113 efflux pump KO; test: microbe, parasite or virus in culture; assay type: cell-based; conditions: Escherichia coli, read-out: MIC Ec113 efflux pump KO
[12] = molecular target: DNA Polymerase IIIα (DnaE) from Staphylococcus aureus (Staphylococcus aureus, UniProt Q6GG04); test: biochemical
[13] = ATCC25923, read-out: MIC Sa26 + 10% SH
[14] = ATCC25923, read-out: MIC Sa26 + 50% SH
[15] = ATCC13709, S. aureus Sa1 ATCC 13709, sensitive strain, Mueller-Hinton Broth, 37° C., read-out: MIC Sa1
[16] = ATCC25923, read-out: MIC Sa26 + 10% SH, S. aureus Sa26 + 10% SH
[17] = ATCC25923, read-out: MIC Sa26 + 50% SH, S. aureus Sa26 + 50% SH
[18] = ATCC25923, S. aureus Sa26 ATCC 25923, sensitive strain, Mueller-Hinton Broth, 37° C., read-out: MIC Sa26
[19] = NCTC6571, S. aureus Sa4 NCTC 6571, sensitive strain, read-out: MIC Sa4
[20] = ATCC25922, E. coli Ec1 ATCC 25922, sensitive strain, read-out: MIC Ec1

Sequence of DNA Polymerase IIIα (DnaE) from Staphylococcus aureus (Q6GG04 1-1022): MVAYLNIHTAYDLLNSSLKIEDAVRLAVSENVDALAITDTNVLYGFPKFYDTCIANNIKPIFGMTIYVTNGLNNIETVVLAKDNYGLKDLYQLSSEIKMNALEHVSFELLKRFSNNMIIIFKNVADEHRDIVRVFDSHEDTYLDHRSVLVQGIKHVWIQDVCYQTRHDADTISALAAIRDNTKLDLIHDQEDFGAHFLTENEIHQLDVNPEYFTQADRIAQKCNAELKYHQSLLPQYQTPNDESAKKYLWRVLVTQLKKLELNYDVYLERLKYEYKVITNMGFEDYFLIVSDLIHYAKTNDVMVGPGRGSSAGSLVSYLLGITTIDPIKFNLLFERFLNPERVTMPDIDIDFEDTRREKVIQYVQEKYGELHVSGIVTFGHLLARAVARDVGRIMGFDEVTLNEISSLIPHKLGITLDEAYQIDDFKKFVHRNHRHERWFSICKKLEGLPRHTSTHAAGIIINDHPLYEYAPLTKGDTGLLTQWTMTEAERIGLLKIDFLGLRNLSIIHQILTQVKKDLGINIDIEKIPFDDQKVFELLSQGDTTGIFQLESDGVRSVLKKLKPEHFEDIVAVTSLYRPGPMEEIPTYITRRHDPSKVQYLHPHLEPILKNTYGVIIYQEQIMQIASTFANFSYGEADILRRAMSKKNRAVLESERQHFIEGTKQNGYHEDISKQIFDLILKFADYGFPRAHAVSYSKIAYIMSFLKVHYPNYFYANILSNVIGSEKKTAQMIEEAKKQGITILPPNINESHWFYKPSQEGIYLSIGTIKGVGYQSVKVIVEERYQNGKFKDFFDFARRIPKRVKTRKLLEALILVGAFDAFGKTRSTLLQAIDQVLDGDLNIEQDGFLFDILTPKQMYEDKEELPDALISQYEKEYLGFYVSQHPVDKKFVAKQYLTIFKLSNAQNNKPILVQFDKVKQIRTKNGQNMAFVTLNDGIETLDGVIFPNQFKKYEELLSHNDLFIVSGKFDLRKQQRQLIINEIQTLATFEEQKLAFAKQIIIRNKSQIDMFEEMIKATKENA

Structure (SMILES): COC[C@@H]1[C@@H](O)[C@@H]2[C@H]3C=C[C@@H]4[C@@H](COC)C(=O)O[C@H]([C@H](O)COC)[C@H](C)/C=C(\C)[C@@]24O[C@H]3[C@@H]1OC(=O)c1cc(Cl)c(Cl)[nH]1 [Compound 31, 8-O-4,5-Dichloro-1H-pyrrole-2′-carbonylbranimycin]
- MIC ([1]; ATCC13709, read-out: MIC Sa1): > 64 µg/mL
- MIC ([2]; ATCC25923, read-out: MIC Sa26): > 64 µg/mL
- MIC [2, 13]: > 64 µg/mL
- MIC [2, 14]: > 64 µg/mL
- MIC ([3]; NCTC6571, read-out: MIC Sa4): 64 µg/mL (≈ 99.3 µM)
- MIC [4]: 64 µg/mL (≈ 99.3 µM)
- MIC [5]: > 64 µg/mL
- MIC [6]: 16 µg/mL (≈ 24.8 µM)
- MIC [7]: 32 µg/mL (≈ 49.6 µM)
- MIC [8]: 32 µg/mL (≈ 49.6 µM)
- MIC ([9]; ATCC25922, read-out: MIC Ec1): > 64 µg/mL
- MIC [10]: > 64 µg/mL
- MIC [11]: 32 µg/mL (≈ 49.6 µM)

Structure (SMILES): COC[C@@H]1[C@@H](O)[C@@H]2[C@H]3C=C[C@@H]4[C@@H](COC)C(=O)O[C@H]([C@H](O)COC)[C@H](C)/C=C(\C)[C@@]24O[C@H]3[C@@H]1OC(=O)c1cc(Br)c(F)[nH]1 [Compound 37, 8-O-4-Bromo-5-Fluoro-1H-pyrrole-2′-carbonylbranimycin]
- MIC [1, 15]: > 64 µg/mL
- MIC [2, 16]: > 64 µg/mL
- MIC [2, 17]: > 64 µg/mL
- MIC [2, 18]: 64 µg/mL (≈ 95.2 µM)
- MIC [3, 19]: 64 µg/mL (≈ 95.2 µM)
- MIC [4]: 64 µg/mL (≈ 95.2 µM)
- MIC [5]: > 64 µg/mL
- MIC [6]: > 64 µg/mL
- MIC [7]: > 64 µg/mL
- MIC [8]: > 64 µg/mL
- MIC [9, 20]: > 64 µg/mL
- MIC [10]: > 64 µg/mL
- MIC [11]: 16 µg/mL (≈ 23.8 µM)
- pIC50 ([12]; DNA polymerase III, S. aureus, read-out: IC50 semiquantitative scoring, S. aureus): 5.83 to 8.83

Structure (SMILES): COCC(=NOC(C)=O)[C@H]1OC(=O)[C@H](COC)[C@H]2C=C[C@H]3[C@H]4O[C@]2(/C(C)=C/[C@H]1C)[C@@H]3[C@H](O)[C@@H](COC)[C@H]4OC(=O)c1cc(Cl)c[nH]1 [Compound 42, 18-Acetylimino-18-deoxy-8-O-4-Chloro-1H-pyrrole-2′-carbonylbranimycin]
- MIC [1, 15]: 2 µg/mL (≈ 3.01 µM)
- MIC [2, 16]: 16 µg/mL
- MIC [2, 17]: 32 µg/mL
- MIC [2, 18]: 4 µg/mL (≈ 6.01 µM)
- MIC [3, 19]: 2 µg/mL (≈ 3.01 µM)
- MIC [4]: 2 µg/mL (≈ 3.01 µM)
- MIC [5]: > 64 µg/mL
- MIC [6]: > 64 µg/mL
- MIC [7]: > 64 µg/mL
- MIC [8]: > 64 µg/mL
- MIC [9, 20]: > 64 µg/mL
- MIC [10]: 64 µg/mL (≈ 96.2 µM)
- MIC [11]: 4 µg/mL (≈ 6.01 µM)

Structure (SMILES): COC/C(=N\OC)[C@H]1OC(=O)[C@H](COC)[C@H]2C=C[C@H]3[C@H]4O[C@]2(/C(C)=C/[C@H]1C)[C@@H]3[C@H](O)[C@@H](COC)[C@H]4OC(=O)c1ccc[nH]1 [Compound 27, 18-Deoxy-18-methoximino-8-O-1H-pyrrole-2′-carbonylbranimycin]
- MIC ([1]; ATCC13709, read-out: MIC Sa1): 1 µg/mL (≈ 1.66 µM)
- MIC ([2]; ATCC25923, read-out: MIC Sa26): 1 µg/mL (≈ 1.66 µM)
- MIC [2, 13]: 2 µg/mL
- MIC [2, 14]: 4 µg/mL
- MIC ([3]; NCTC6571, read-out: MIC Sa4): 1 µg/mL (≈ 1.66 µM)
- MIC [4]: 1 µg/mL (≈ 1.66 µM)
- MIC [5]: > 64 µg/mL
- MIC [6]: > 64 µg/mL
- MIC [7]: > 64 µg/mL
- MIC [8]: > 64 µg/mL
- MIC ([9]; ATCC25922, read-out: MIC Ec1): > 64 µg/mL
- MIC [10]: > 64 µg/mL
- MIC [11]: 4 µg/mL (≈ 6.64 µM)
- pIC50 [12]: 5.78 to 8.78

Structure (SMILES): COC[C@@H](O)[C@H]1OC(=O)[C@H](COC)[C@H]2C=C[C@H]3[C@H]4O[C@]2(/C(C)=C/[C@H]1C)[C@@H]3[C@H](O)[C@@H](C)[C@H]4OC(=O)c1cc(Cl)c[nH]1 [Compound 30, 8-O-4-Chloro-1H-pyrrole-2′-carbonylbaleomycin]
- MIC ([1]; ATCC13709, read-out: MIC Sa1): 16 µg/mL (≈ 27.6 µM)
- MIC ([2]; ATCC25923, read-out: MIC Sa26): 16 µg/mL (≈ 27.6 µM)
- MIC [2, 13]: 32 µg/mL
- MIC [2, 14]: 64 µg/mL
- MIC ([3]; NCTC6571, read-out: MIC Sa4): 16 µg/mL (≈ 27.6 µM)
- MIC [4]: 8 µg/mL (≈ 13.8 µM)
- MIC [5]: > 64 µg/mL
- MIC [6]: 64 µg/mL (≈ 110 µM)
- MIC [7]: 64 µg/mL (≈ 110 µM)
- MIC [8]: > 64 µg/mL
- MIC ([9]; ATCC25922, read-out: MIC Ec1): > 64 µg/mL
- MIC [10]: 16 µg/mL (≈ 27.6 µM)
- MIC [11]: 0.5 µg/mL (≈ 0.862 µM)
